The results in this text go back to paper PMC5663094, “A seven-gene cluster in Ruminiclostridium cellulolyticum is essential for signalization, uptake and catabolism of the degradation products of cellulose hydrolysis” (Biotechnology for Biofuels, 2017).

For one test, the target named is T1, rCuaA (Ruminiclostridium cellulolyticum, UniProt B8I424).
T1 construct: gene Ccel_2112; mature protein (lipoprotein signal peptide removed, putative cleavage at amino acid 22), N-terminal His6, pET22b(+), E. coli BL21(DE3)
Nature of the test: isothermal titration calorimetry. The note with it: 20 °C, 150 mM NaCl, 25 mM HEPES, pH 7.0. In kind it is binding. The source says: isothermal titration calorimetry on rCuaA
A general note: Isothermal titration calorimetry measures the heat released or taken up as one component is titrated into another.

The target of a further test is T2, rCuaD (Ruminiclostridium cellulolyticum, UniProt B8I427).
T2 construct: gene Ccel_2115; mature protein (lipoprotein signal peptide removed, putative cleavage at amino acid 20), N-terminal His6, pET22b(+), E. coli BL21(DE3)
The experiment in a line: isothermal titration calorimetry. In kind it is binding. The note with it: 20 °C, 150 mM NaCl, 25 mM HEPES, pH 7.0. The source says: isothermal titration calorimetry on rCuaD

T1 sequence (B8I424 entry or part of it): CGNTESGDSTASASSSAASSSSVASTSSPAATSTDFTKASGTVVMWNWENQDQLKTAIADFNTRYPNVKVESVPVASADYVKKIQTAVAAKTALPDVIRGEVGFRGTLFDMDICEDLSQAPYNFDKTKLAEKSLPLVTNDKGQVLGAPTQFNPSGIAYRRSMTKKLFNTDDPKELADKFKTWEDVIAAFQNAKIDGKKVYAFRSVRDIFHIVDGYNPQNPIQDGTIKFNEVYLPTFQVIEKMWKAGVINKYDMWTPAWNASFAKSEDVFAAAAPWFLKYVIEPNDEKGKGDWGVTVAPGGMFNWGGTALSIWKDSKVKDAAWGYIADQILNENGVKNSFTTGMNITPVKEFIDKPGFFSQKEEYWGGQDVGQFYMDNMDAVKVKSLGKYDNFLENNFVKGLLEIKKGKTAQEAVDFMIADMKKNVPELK
T2 sequence (B8I427 entry or part of it): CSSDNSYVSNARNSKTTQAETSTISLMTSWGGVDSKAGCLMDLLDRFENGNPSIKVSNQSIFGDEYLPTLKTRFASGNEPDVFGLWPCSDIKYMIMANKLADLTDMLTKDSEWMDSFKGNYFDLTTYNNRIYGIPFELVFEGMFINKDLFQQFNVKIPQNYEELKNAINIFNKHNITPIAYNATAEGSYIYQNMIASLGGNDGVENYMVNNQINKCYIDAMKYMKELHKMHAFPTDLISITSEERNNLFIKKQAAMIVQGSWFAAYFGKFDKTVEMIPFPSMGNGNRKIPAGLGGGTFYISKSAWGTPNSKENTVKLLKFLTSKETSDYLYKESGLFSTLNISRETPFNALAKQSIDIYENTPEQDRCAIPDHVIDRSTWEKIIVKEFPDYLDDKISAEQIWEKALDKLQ

The molecule `OC[C@H]1O[C@@H](O[C@H]2[C@H](O)[C@@H](O)[C@H](O[C@H]3[C@H](O)[C@@H](O)C(O)O[C@@H]3CO)O[C@@H]2CO)[C@H](O)[C@@H](O)[C@@H]1O` (some centres unmarked) [G3, cellotriose] returned a Kd on rCuaA of 405 ± 110 nM.

As for `OC[C@H]1O[C@@H](O[C@H]2[C@H](O)[C@@H](O)C(O)O[C@@H]2CO)[C@H](O)[C@@H](O)[C@@H]1O` (some centres unmarked) [G2, cellobiose], the Kd at rCuaA came out at 240 ± 20 nM; on rCuaD, 23 ± 3 nM.

On rCuaA, `OC[C@H]1O[C@@H](O[C@H]2[C@H](O)[C@@H](O)[C@H](O[C@H]3[C@H](O)[C@@H](O)[C@H](O[C@H]4[C@H](O)[C@@H](O)[C@H](O[C@H]5[C@H](O)[C@@H](O)C(O)O[C@@H]5CO)O[C@@H]4CO)O[C@@H]3CO)O[C@@H]2CO)[C@H](O)[C@@H](O)[C@@H]1O` (some centres unmarked) [G5, cellopentaose] showed a Kd of 1860 ± 130 nM.

On rCuaA, `OC[C@H]1O[C@@H](O[C@H]2[C@H](O)[C@@H](O)[C@H](O[C@H]3[C@H](O)[C@@H](O)[C@H](O[C@H]4[C@H](O)[C@@H](O)C(O)O[C@@H]4CO)O[C@@H]3CO)O[C@@H]2CO)[C@H](O)[C@@H](O)[C@@H]1O` (some centres unmarked) [G4, cellotetraose] yielded a Kd of 644 ± 58 nM.

One may read the Kd as a measure of binding affinity in units of concentration.
